From article PMC6476306 (Biochemistry, 2017)

The molecules below were run against T1, S. aureus DnaG primase CTD (Staphylococcus aureus, UniProt P63964) (assay: 2D 1H-15N HSQC NMR titration).
T1 sequence (P63964 463-605): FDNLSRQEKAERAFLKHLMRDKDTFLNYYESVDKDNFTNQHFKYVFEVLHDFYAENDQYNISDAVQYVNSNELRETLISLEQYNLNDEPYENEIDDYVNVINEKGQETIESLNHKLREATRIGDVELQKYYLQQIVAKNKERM
Format: binding

Compound	Kd
Nc1nc2c(ncn2COCCO)c(=O)[nH]1 [acycloguanosine]	> 4 mM
Nc1ncnc2c1ncn2[C@@H]1O[C@H](CO)[C@@H](O)[C@H]1O [adenosine]	> 4 mM
O=c1c(O)c(-c2cc(O)c(O)c(O)c2)oc2cc(O)cc(O)c12 [myricetin]	> 4 mM
